Test results from patent US5366880A, “Antibiotic agent” (Merck & Co., Inc., priority 1993, dated 1994).
≈ marks a conversion by molar mass, not a printed value. *1 amine or outer side, *2 acyl side, *3 side chain or, on linkers, in order; H or OH if unused. Where a SMILES comes first, the peptide text is derived from it. Bridges are numbered along the chain shown (N, C = ends). [ ]: non-standard residue; d: D form. The star is where a group is joined. ξ: configuration not given here. ξOrn(4,5-diOH) = O=C(C(CC(O)C(O)N[*:3])N[*:1])[*:2]; ξhTyr(βξ-OH,γξ-OH) = NC(C(=O)O)C(O)C(O)c1ccc(O)cc1; X2 = NC(=O)CC(O)C(N[*:1])C(=O)[*:2]; X3 = O=C(C1C(O)C(O)CN1[*:1])[*:2]; X1 = CCC(C)CC(C)CCCCCCCCC(=O)*; Hyp = O=C(O)[CH]1C[CH](O)CN1

How the values were obtained:
Pneumocystis carinii = assay: effectiveness against Pneumocystis carinii pneumonia in immunosuppressed rats; assay type: in vivo, Sprague-Dawley rats; details: subcutaneously twice daily for four days; for Reduction of Cysts / Log Mean # Cysts (± SEGM): rat lung; for Log Mean # Cysts (± SEGM): * significant (t-test); for Survivors: rats
Procedure: Compound I is useful for inhibiting or alleviating Pneumocystis carinii infections. In a representative study, the effectiveness of Compound I in rats were determined. Sprague-Dawley rats (weighing approximatley 250 g) were immunosuppressed with dexasone in the drinking water ([…]) and maintained on a low protein diet for 5 weeks to induce the development of Pneumocystis pneumonia from a latent infection. Before drug treatment 2 rats were sacrificed to confirm the presence of Pneumocystis carinii pneumonia (PCP); both rats had infections. The remaining rats (weighing approximately 150 g) were distributed into groups of 6 and injected twice daily for four days subcutaneously with compound in 0.25 ml of vehicle (10% DMSO in water or water). The control group of 5 rats received vehicle alone. All animals continued to receive dexasone in the drinking water and low protein diet during the drug treatment period. At the completion of treatment all animals were sacrificed, the lungs were removed and processed, and the extent of disease determined by microscopic analysis of stained slides. […] All groups were compared using the student t-test and results marked (*) are significant.

Candida albicans = assay: minimum fungicidal concentration (MFC), microbroth dilution assay, Candida albicans; assay type: cell-based; details: 24 h
Procedure: (§1) The antifungal properties may be illustrated with the minimum fungicidal concentration (MFC) determinations against certain Candida organisms in a microbroth dilution assay carried out in Yeast Nitrogen Base (Difco) with 1 percent dextrose (YNBD). In carrying out the assay, Compound I was solubilized in 10 percent dimethyl sulfoxide (DMSO) and diluted to 2560 μg/ml. The compound was then diluted to 256 μg/ml in YNBD. 0.15 ml of the suspension was dispensed to the top row of a 96-well plate (each well containing 0.15 ml of YNDB) resulting in a drug concentration of 128 μg/ml. Two-fold dilutions were then made from the top row to obtain final drug concentrations ranging from 128 to 0.06 μg/ml.
(§2) The yeast cultures, maintained on Sabouraud dextrose agar were transferred to YM broth (Difco) and incubated overnight at 35° C. with shaking (250 rpm). After incubation, each culture was diluted in sterile water to yield a final concentration of 1-5×10^6 colony forming units (CFU)/ml.
96-well microplates were inoculated using a MIC-2000 (Dynatech) which delivers 1.5 μl per well yielding a final inoculum per well of 1.5-7.5×10^3 cells. The microplates were incubated at 35° C. for 24 hours. The minimum inhibitory concentrations (MICs) were recorded as the lowest concentrations of drug showing no visible growth.
After recording the MIC, the plates were shaken to resuspend the cells. Thereafter, 1.5 μl samples from the wells in the 96-well microplate were transferred to a single well tray containing Sabouraud dextrose agar. The inoculated trays were incubated 24 hours at 28° C. and then read. The MFC is defined as the lowest concentration of drug showing no growth or less than 4 colonies per spot. The results (three samples) are seen in the following table: ______________________________________ Minimum Fungicidal Concentration (μg/ml) Fungi Compound Compound Strain No. IA IB ______________________________________ Candida albicans MY 1055 2 1 MY 1028 2 0.5 MY 1750 4 1 Candida tropicalis MY 1012 1 0.12 Candida pseudotropicalis MY 1100 4 2 ______________________________________

Candida pseudotropicalis = assay: minimum fungicidal concentration (MFC), microbroth dilution assay, Candida pseudotropicalis; assay type: cell-based; details: Kluyveromyces marxianus, 24 h; strain MY 1100; YNBD
Procedure: as §1, §2
(§3) 96-well microplates were inoculated using a MIC-2000 (Dynatech) which delivers 1.5 μl per well yielding a final inoculum per well of 1.5-7.5×10^3 cells. […] The minimum inhibitory concentrations (MICs) were recorded as the lowest concentrations of drug showing no visible growth.
(§4) After recording the MIC, the plates were shaken to resuspend the cells. […] The inoculated trays were incubated 24 hours at 28° C. and then read. […]

Candida tropicalis = assay: minimum fungicidal concentration (MFC), microbroth dilution assay, Candida tropicalis; assay type: cell-based; details: 24 h, strain MY 1012, YNBD
Procedure: as §1, §2, §3, §4

SMILES	Reduction of Cysts (Pneumocystis carinii; 0.15 mg/kg)	Log Mean # Cysts (± SEGM) (Pneumocystis carinii; 0.15 mg/kg)	Survivors (Pneumocystis carinii; 0.15 mg/kg)	Reduction of Cysts (Pneumocystis carinii; 0.30 mg/kg)	Log Mean # Cysts (± SEGM) (Pneumocystis carinii; 0.30 mg/kg)	Survivors (Pneumocystis carinii; 0.30 mg/kg)	Reduction of Cysts (Pneumocystis carinii; 0.60 mg/kg)	Log Mean # Cysts (± SEGM) (Pneumocystis carinii; 0.60 mg/kg)	Survivors (Pneumocystis carinii; 0.60 mg/kg)	MFC (Candida albicans; strain MY 1028, YNBD)	MFC (Candida albicans; strain MY 1055, YNBD)	MFC (Candida albicans; strain MY 1750, YNBD)	MFC (Candida pseudotropicalis)	MFC (Candida tropicalis)	other results
CCC(C)CC(C)CCCCCCCCC(=O)NC1CC(O)C(O)NC(=O)C2CC(O)CN2C(=O)C(C(O)CC(N)=O)NC(=O)C(C(O)C(O)c2ccc(O)cc2)NC(=O)C2CC(O)CN2C(=O)C(C(C)O)NC1=O (stereo not drawn) [Compound IA] (X1-[ξOrn(4,5-diOH)]T[Hyp][ξhTyr(βξ-OH,γξ-OH)][X2][Hyp]; lactam 1-C; configuration not given here)	88.5%	6.32 ± .17	6/6	94.6%	5.99 ± .18	5/6	97.4%	5.68 ± .19	6/6	2 µg/mL (≈ 1.88 µM)	2 µg/mL (≈ 1.88 µM)	4 µg/mL (≈ 3.76 µM)	4 µg/mL (≈ 3.76 µM)	1 µg/mL (≈ 0.939 µM)	Reduction of Cysts (Pneumocystis carinii; 1.20 mg/kg): 97.9%; Log Mean # Cysts (± SEGM) (Pneumocystis carinii; 1.20 mg/kg): 5.58 ± .11; Survivors (Pneumocystis carinii; 1.20 mg/kg): 5/6
CCC(C)CC(C)CCCCCCCCC(=O)NC1CC(O)C(O)NC(=O)C2C(O)C(O)CN2C(=O)C(C(O)CC(N)=O)NC(=O)C(C(O)C(O)c2ccc(O)cc2)NC(=O)C2CC(O)CN2C(=O)C(C(C)O)NC1=O (stereo not drawn) [Compound IB] (X1-[ξOrn(4,5-diOH)]T[Hyp][ξhTyr(βξ-OH,γξ-OH)][X2][X3]; lactam 1-C; configuration not given here)	98.7%	5.59 ± .11	6/6	99.4%	5.22 ± .10	6/6	99.1%	5.41 ± .17	6/6	0.5 µg/mL (≈ 0.462 µM)	1 µg/mL (≈ 0.925 µM)	1 µg/mL (≈ 0.925 µM)	2 µg/mL (≈ 1.85 µM)	0.12 µg/mL (≈ 0.111 µM)	Reduction of Cysts (Pneumocystis carinii; 0.03 mg/kg): 95.0%; Log Mean # Cysts (± SEGM) (Pneumocystis carinii; 0.03 mg/kg): 6.16 ± .14; Survivors (Pneumocystis carinii; 0.03 mg/kg): 6/6; Reduction of Cysts (Pneumocystis carinii; 0.07 mg/kg): 96.8%; Log Mean # Cysts (± SEGM) (Pneumocystis carinii; 0.07 mg/kg): 5.97 ± .18; Survivors (Pneumocystis carinii; 0.07 mg/kg): 6/6
